This is an account of results in patent US10780090B2, “Heteroaryl compounds useful as inhibitors of SUMO activating enzyme” (Millennium Pharmaceuticals, Inc., priority 2014, dated 2020).

The term inhibition denotes the percentage by which the read-out fell short of the control. One may read the IC50 as the concentration that gives 50% inhibition.

The experiment deals with recombinant human SAE enzyme (Homo sapiens (Human), UniProt Q9UBT2). The experiment in a line: SAE HTRF enzyme assay. The format is biochemical. The settings on record: for inhibition at 0.111 µM: read-out: Percent Inhibition. Summed up:
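HTRF read-out using Eu-cryptate anti-Flag and allophycocyanin anti-GST antibodies, added with EDTA stop buffer and read after 2 h at 24 °C. The preceding reaction ran 105 min at 24 °C: 0.11 nM recombinant SAE, 0.5 μM ATP, Sumo-Flag, Ubc9-GST, pH 7.5. Values given as single-concentration inhibition or IC50.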
(In TR-FRET formats the signal depends on donor and acceptor labels being close together.)

The mark [1] stands for this setting: SAE inhibition at compound concentration 0.111 μM.
[2] abbreviates: SAE inhibition, class symbols, legend in nM.

recombinant human SAE enzyme, sequence (Q9UBT2 whole entry): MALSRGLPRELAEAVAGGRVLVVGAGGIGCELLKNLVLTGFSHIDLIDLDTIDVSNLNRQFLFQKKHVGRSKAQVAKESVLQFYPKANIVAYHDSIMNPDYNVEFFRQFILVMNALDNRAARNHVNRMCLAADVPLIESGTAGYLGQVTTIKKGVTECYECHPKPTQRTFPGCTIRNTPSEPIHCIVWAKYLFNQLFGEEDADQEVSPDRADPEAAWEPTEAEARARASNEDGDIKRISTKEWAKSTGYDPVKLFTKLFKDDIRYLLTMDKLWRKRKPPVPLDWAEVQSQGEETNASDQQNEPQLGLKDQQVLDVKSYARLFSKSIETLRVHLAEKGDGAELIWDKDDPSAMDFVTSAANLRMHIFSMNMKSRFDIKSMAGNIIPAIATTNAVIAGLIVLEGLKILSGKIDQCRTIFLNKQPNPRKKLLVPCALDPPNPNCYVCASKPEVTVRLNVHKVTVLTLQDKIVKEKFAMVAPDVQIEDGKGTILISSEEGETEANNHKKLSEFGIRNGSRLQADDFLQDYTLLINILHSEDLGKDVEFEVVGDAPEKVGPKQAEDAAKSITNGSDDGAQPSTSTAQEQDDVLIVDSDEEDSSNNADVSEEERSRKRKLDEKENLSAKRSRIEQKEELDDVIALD
recombinant human SAE enzyme, sequence (Q9UBE0 whole entry partner): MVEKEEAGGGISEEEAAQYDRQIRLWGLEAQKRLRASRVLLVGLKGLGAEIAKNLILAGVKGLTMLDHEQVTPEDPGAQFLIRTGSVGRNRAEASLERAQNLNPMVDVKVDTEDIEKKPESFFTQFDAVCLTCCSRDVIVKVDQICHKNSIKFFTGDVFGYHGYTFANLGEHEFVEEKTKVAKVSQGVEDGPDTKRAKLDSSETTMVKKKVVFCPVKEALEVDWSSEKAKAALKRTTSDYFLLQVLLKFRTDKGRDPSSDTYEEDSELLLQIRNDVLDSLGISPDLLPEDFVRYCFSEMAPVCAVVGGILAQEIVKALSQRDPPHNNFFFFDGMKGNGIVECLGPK

Regarding `NS(=O)(=O)OC[C@H]1C[C@@H](Nc2ncncc2C(=O)c2cc(Cc3cccc(Cl)c3)c(Cl)s2)C[C@@H]1O` [I-107, {(1R,2S,4R)-4-[(5-{[5-chloro-4-(3-chlorobenzyl)-2-thienyl]carbonyl}pyrimidin-4-yl)amino]-2-hydroxycyclopentyl}methyl sulfamate], the inhibition at 0.111 µM (Concentration 0.111 μM) was 96%. Further, the IC50 (class symbols A/B/C) was < 10 nM.
In the case of `Cc1oc(C(=O)c2cncnc2N[C@@H]2C[C@H](COS(N)(=O)=O)[C@@H](O)C2)cc1Cc1cccc(Br)c1` [I-34, [(1R,2S,4R)-4-({5-[4-(3-bromobenzyl)-5-methyl-2-furoyl]pyrimidin-4-yl}amino)-2-hydroxycyclopentyl]methyl sulfamate], for the setting “Concentration 0.111 μM”, the inhibition at 0.111 µM worked out at 99%. Further, for the setting “class symbols A/B/C”, the 50% inhibitory concentration (IC50) is < 10 nM.
For the molecule `CC(N)(c1cccc(Cl)c1)c1csc(C(=O)c2cncnc2NC2CC(O)C(COS(N)(=O)=O)C2)c1` (mixture of isomers) [I-12, [(1R,2S,4R)-4-{[5-({4-[(1S)-1-amino-1-(3-chlorophenyl)ethyl]-2-thienyl}carbonyl)pyrimidin-4-yl]amino}-2-hydroxycyclopentyl]methyl sulfamate and [(1R,2S,4R)-4-{[5-({4-[(1R)-1-amino-1-(3-chlorophenyl)ethyl]-2-thienyl}carbonyl)pyrimidin-4-yl]amino}-2-hydroxycyclopentyl]methyl sulfamate], under “Concentration 0.111 μM”, the “Percent Inhibition” value is listed as 99. The IC50 (class symbols A/B/C) was < 10 nM.
Regarding `NS(=O)(=O)OC[C@H]1C[C@@H](Nc2ncncc2C(=O)c2cc([C@@]3(c4ccccc4)CCCO3)cs2)C[C@@H]1O` (single isomer, unassigned) [I-32a, [(1R,2S,4R)-2-hydroxy-4-{[5-({4-[(2S)-2-phenyltetrahydrofuran-2-yl]-2-thienyl}carbonyl)pyrimidin-4-yl]amino}cyclopentyl]methyl sulfamate or [(1R,2S,4R)-2-hydroxy-4-{[5-({4-[(2R)-2-phenyltetrahydrofuran-2-yl]-2-thienyl}carbonyl)pyrimidin-4-yl]amino}cyclopentyl]methyl sulfamate], where the note is “Concentration 0.111 μM”, the “Percent Inhibition” value is 98. Further, the concentration for half-maximal inhibition (IC50) (class symbols A/B/C) was < 10 nM.
With `NS(=O)(=O)OC[C@H]1C[C@@H](Nc2ncncc2C(=O)c2cc([C@H]3NCCc4ccccc43)c(Cl)s2)[C@H](O)[C@@H]1O` (mixture of isomers) [I-302, [(1R,2R,3S,4R)-4-{[5-({5-chloro-4-[(1S)-1,2,3,4-tetrahydroisoquinolin-1-yl]-2-thienyl}carbonyl)pyrimidin-4-yl]amino}-2,3-dihydroxycyclopentyl]methyl sulfamate and [(1R,2R,3S,4R)-4-{[5-({5-chloro-4-[(1R)-1,2,3,4-tetrahydroisoquinolin-1-yl]-2-thienyl}carbonyl)pyrimidin-4-yl]amino}-2,3-dihydroxycyclopentyl]methyl sulfamate], the “Percent Inhibition” value under setting [1] came to 100%. In addition, under setting [2], the half-maximal inhibitory concentration (IC50) is < 10 nM.
As to `Cc1sc(C(=O)c2cncnc2N[C@@H]2C[C@H](COS(N)(=O)=O)[C@@H](O)C2)cc1[C@H](O)c1cccc(Cl)c1` (single isomer, unassigned) [I-11b, [(1R,2S,4R)-4-{[5-({4-[(R)-(3-chlorophenyl)(hydroxy)methyl]-5-methyl-2-thienyl}carbonyl)pyrimidin-4-yl]amino}-2-hydroxycyclopentyl]methyl sulfamate or [(1R,2S,4R)-4-{[5-({4-[(S)-(3-chlorophenyl)(hydroxy)methyl]-5-methyl-2-thienyl}carbonyl)pyrimidin-4-yl]amino}-2-hydroxycyclopentyl]methyl sulfamate], the “Percent Inhibition” value (Concentration 0.111 μM) is 99. Under “class symbols A/B/C”, the IC50 was < 10 nM.
On to `NS(=O)(=O)OC[C@H]1C[C@@H](Nc2ncncc2C(=O)c2cc(Cc3cccc(Br)c3)cs2)[C@@H](F)[C@@H]1O` [I-101, {(1R,2R,3R,4R)-4-[(5-{[4-(3-bromobenzyl)-2-thienyl]carbonyl}pyrimidin-4-yl)amino]-3-fluoro-2-hydroxycyclopentyl}methyl sulfamate], for which, for the setting “Concentration 0.111 μM”, the inhibition at 0.111 µM came out at 96%. For the same molecule, under “class symbols A/B/C”, the 50% inhibitory concentration (IC50) is < 10 nM.
`Cc1sc(C(=O)c2cncnc2NC2CC(O)C(COS(N)(=O)=O)C2)cc1C(O)c1cccc(Cl)c1` (mixture of isomers) [I-11, [(1R,2S,4R)-4-{[5-({4-[(R)-(3-chlorophenyl)(hydroxy)methyl]-5-methyl-2-thienyl}carbonyl)pyrimidin-4-yl]amino}-2-hydroxycyclopentyl]methyl sulfamate and [(1R,2S,4R)-4-{[5-({4-[(S)-(3-chlorophenyl)(hydroxy)methyl]-5-methyl-2-thienyl}carbonyl)pyrimidin-4-yl]amino}-2-hydroxycyclopentyl]methyl sulfamate]: the “Percent Inhibition” value (Concentration 0.111 μM) was determined as 99. For the same molecule, for the setting “class symbols A/B/C”, the IC50 is < 10 nM.
Take `NS(=O)(=O)OC[C@H]1C[C@@H](Nc2ncncc2C(=O)c2cc(CN3CCCC(F)(F)C3)cs2)C[C@@H]1O` [I-224, [(1R,2S,4R)-4-{[5-({4-[(3,3-difluoropiperidin-1-yl)methyl]-2-thienyl}carbonyl)pyrimidin-4-yl]amino}-2-hydroxycyclopentyl]methyl sulfamate]: the inhibition at 0.111 µM (Concentration 0.111 μM) is 31%. Besides, under “class symbols A/B/C”, the concentration for half-maximal inhibition (IC50) is 100 to 1000 nM.
As to `Cc1sc(C(=O)c2cncnc2N[C@@H]2C[C@H](COS(N)(=O)=O)[C@@H](O)C2)cc1[C@@]1(c2ccccc2)CCCO1` (mixture of isomers) [I-121, [(1R,2S,4R)-2-hydroxy-4-{[5-({5-methyl-4-[(2S)-2-phenyltetrahydrofuran-2-yl]-2-thienyl}carbonyl)pyrimidin-4-yl]amino}cyclopentyl]methyl sulfamate and [(1R,2S,4R)-2-hydroxy-4-{[5-({5-methyl-4-[(2R)-2-phenyltetrahydrofuran-2-yl]-2-thienyl}carbonyl)pyrimidin-4-yl]amino}cyclopentyl]methyl sulfamate], where the note is “Concentration 0.111 μM”, the “Percent Inhibition” value is given as 98. Further, the half-inhibitory concentration (IC50) (class symbols A/B/C) was < 10 nM.
As for `NS(=O)(=O)OC[C@H]1C[C@@H](Nc2ncncc2C(=O)c2cc(Cc3cccc(Cl)n3)cs2)C[C@@H]1O` [I-71, [(1R,2S,4R)-4-{[5-({4-[(6-chloropyridin-2-yl)methyl]-2-thienyl}carbonyl)pyrimidin-4-yl]amino}-2-hydroxycyclopentyl]methyl sulfamate], the inhibition at 0.111 µM (Concentration 0.111 μM) is 98%.
On to `N[C@H](c1cccc(Cl)c1)c1cc(C(=O)c2cncnc2N[C@@H]2C[C@H](COS(N)(=O)=O)[C@@H](O)C2)sc1Cl` (single isomer, unassigned) [I-15a, [(1R,2S,4R)-4-{[5-({4-[(R)-amino(3-chlorophenyl)methyl]-5-chloro-2-thienyl}carbonyl)pyrimidin-4-yl]amino}-2-hydroxycyclopentyl]methyl sulfamate or [(1R,2S,4R)-4-{[5-({4-[(S)-amino(3-chlorophenyl)methyl]-5-chloro-2-thienyl}carbonyl)pyrimidin-4-yl]amino}-2-hydroxycyclopentyl]methyl sulfamate], for which the “Percent Inhibition” value (Concentration 0.111 μM) amounted to 66. The IC50 (class symbols A/B/C) was in the range of 10 to 100 nM.
As to `NS(=O)(=O)OC[C@H]1C[C@@H](Nc2ncncc2C(=O)c2cc([C@@H]3NCCc4ccccc43)cs2)C[C@@H]1O` (single isomer, unassigned) [I-283b, [(1R,2S,4R)-2-hydroxy-4-{[5-({4-[(1R)-1,2,3,4-tetrahydroisoquinolin-1-yl]-2-thienyl}carbonyl)pyrimidin-4-yl]amino}cyclopentyl]methyl sulfamate or [(1R,2S,4R)-2-hydroxy-4-{[5-({4-[(1S)-1,2,3,4-tetrahydroisoquinolin-1-yl]-2-thienyl}carbonyl)pyrimidin-4-yl]amino}cyclopentyl]methyl sulfamate], the “Percent Inhibition” value under setting [1] came out at 93%. Under setting [2], the half-maximal inhibitory concentration (IC50) is 10 to 100 nM.
On to `NC(c1cccc(Cl)n1)c1cc(C(=O)c2cncnc2NC2CC(O)C(COS(N)(=O)=O)C2)sc1Cl` (mixture of isomers) [I-25, [(1R,2S,4R)-4-{[5-({4-[(S)-amino(6-chloropyridin-2-yl)methyl]-5-chloro-2-thienyl}carbonyl)pyrimidin-4-yl]amino}-2-hydroxycyclopentyl]methyl sulfamate and [(1R,2S,4R)-4-{[5-({4-[(R)-amino(6-chloropyridin-2-yl)methyl]-5-chloro-2-thienyl}carbonyl)pyrimidin-4-yl]amino}-2-hydroxycyclopentyl]methyl sulfamate], for which, where the note is “Concentration 0.111 μM”, the “Percent Inhibition” value stood at 98. For the same molecule, the IC50 (class symbols A/B/C) was < 10 nM.
On to `Cc1cn2c(n1)[C@H](c1cc(C(=O)c3cncnc3N[C@@H]3C[C@H](COS(N)(=O)=O)[C@@H](O)C3)sc1C)OCC2` (mixture of isomers) [I-309, [(1R,2S,4R)-2-hydroxy-4-{[5-({5-methyl-4-[(8S)-2-methyl-5,6-dihydro-8H-imidazo[2,1-c][1,4]oxazin-8-yl]-2-thienyl}carbonyl)pyrimidin-4-yl]amino}cyclopentyl]methyl sulfamate and [(1R,2S,4R)-2-hydroxy-4-{[5-({5-methyl-4-[(8R)-2-methyl-5,6-dihydro-8H-imidazo[2,1-c][1,4]oxazin-8-yl]-2-thienyl}carbonyl)pyrimidin-4-yl]amino}cyclopentyl]methyl sulfamate], for which, under setting [1], the “Percent Inhibition” value is recorded as 98%. The IC50 under setting [2] was < 10 nM.
In the case of `CC(O)(c1cccc(Cl)c1)c1ccc(C(=O)c2cncnc2NC2CC(O)C(COS(N)(=O)=O)C2)s1` (mixture of isomers) [I-152, [(1R,2S,4R)-4-{[5-({5-[(1R)-1-(3-chlorophenyl)-1-hydroxyethyl]-2-thienyl}carbonyl)pyrimidin-4-yl]amino}-2-hydroxycyclopentyl]methyl sulfamate and [(1R,2S,4R)-4-{[5-({5-[(1S)-1-(3-chlorophenyl)-1-hydroxyethyl]-2-thienyl}carbonyl)pyrimidin-4-yl]amino}-2-hydroxycyclopentyl]methyl sulfamate], the “Percent Inhibition” value (Concentration 0.111 μM) is given as 93. Moreover, for the setting “class symbols A/B/C”, the concentration for half-maximal inhibition (IC50) was < 10 nM.
